Results published in patent US12171230B2, “Herbicidal compositions” (Bayer Aktiengesellschaft, priority 2018, dated 2024).
Values joined by “and” are separate entries in the source; they are usually repeats but may differ in a detail not shown here. Equal entries are not always repeated. Where two headings read alike, the source gives them in different places.

How the values were obtained:
Assay type in all cases: in vivo
Amaranthus palmeri = experiment: Post-emergence herbicidal action against Amaranthus palmeri; conditions: for pest or weed control at 5 g/ha: 5 g of a.i./ha; for pest or weed control at 15 g/ha: 15 g of a.i./ha
Procedure, shortened: (§1)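 Pot-grown plants, three weeks old at the three-leaf stage, received foliar sprays of various dosages. Visual assessment relative to untreated plants followed 3 to 4 weeks later.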

Bidens pilosa = experiment: Post-emergence herbicidal action against Bidens pilosa; conditions: for Herbicidal action: 21 DAT
Procedure, shortened: as §1

Brachiaria platyphylla = experiment: Post-emergence herbicidal action against Brachiaria platyphylla; conditions: for Herbicidal action: 21 DAT
Protocol: (§2) When the observed efficacies exceed the formal sum total of the values of the tests with individual applications, they also exceed the expected value according to Colby, which is calculated using the formula below and is likewise regarded as an indication of synergism (cf. S. R. Colby; in Weeds 15 (1967) p. 20 to 22): E^C=A+B−([…])
(§3) Here: • A=efficacy of the active compound (A) in % at an application rate of a g a.i./ha; • B=efficacy of the active compound (B) in % at an application rate of b g a.i./ha; • E^C=expected value of the effect of the combination (A)+(B) in % at the combined application rate a+b g a.i./ha.
(§4) Seeds or rhizome pieces of mono- and dicotyledonous weeds are placed in sandy loam in pots, covered with soil and grown in a greenhouse under good growth conditions (temperature, air humidity, water supply). Three weeks after sowing, the test plants were treated at the three-leaf stage with the compositions according to the invention. The compositions according to the invention formulated as spray powders or as emulsion concentrates were sprayed onto the green plant parts in various dosages with an application rate of 300 to 800 l/ha of water (equivalent). After the test plants have been left to stand in the greenhouse under optimal growth conditions for about 3 to 4 weeks, the action of the preparations is scored visually in comparison to untreated controls. The compositions according to the invention also have good post-emergence herbicidal activity against a broad spectrum of economically important gramineous and broadleaf weeds.

Sorghum halepense = experiment: Post-emergence herbicidal action against Sorghum halepense; conditions: for Herbicidal action: 21 DAT
Protocol: as §2, §3, §4

Digitaria sanguinalis = experiment: Post-emergence herbicidal action against Digitaria sanguinalis; conditions: for Herbicidal action: 21 DAT
Procedure, shortened: as §1

Abutilon theophrasti = experiment: Post-emergence herbicidal action against Abutilon theophrasti; conditions: 75 g of a.i./ha
Panicum maximum = experiment: Post-emergence herbicidal action against Panicum maximum; conditions: 75 g of a.i./ha
Protocol: as §2, §3, §4

Bellis perenne = experiment: Post-emergence herbicidal action against Bellis perenne; conditions: 105 g of a.i./ha
Protocol: as §2, §3
as §4, with “The compositions according to the invention also have good post-emergence herbicidal activity against a broad spectrum of economically important gramineous and broadleaf weeds.” left out

Ephilobium hirsutum = experiment: Post-emergence herbicidal action against Ephilobium hirsutum; conditions: 105 g of a.i./ha
Protocol: as §2, §3
as §4, with “The compositions according to the invention also have good post-emergence herbicidal activity against a broad spectrum of economically important gramineous and broadleaf weeds.” left out

Lamium purpureum = experiment: Post-emergence herbicidal action against Lamium purpureum; conditions: 105 g of a.i./ha, post-emergence
Procedure, shortened: as §1

Ranunculus repens = experiment: Post-emergence herbicidal action against Ranunculus repens; conditions: 105 g of a.i./ha
Protocol: as §2, §3
as §4, with “After the test plants have been left to stand in the greenhouse under optimal growth conditions for about 3 to 4 weeks, the action of the preparations is scored visually in comparison to untreated controls.” left out

Viola arvensis = experiment: Post-emergence herbicidal action against Viola arvensis; conditions: 105 g of a.i./ha
Protocol: as §2, §3
as §4, with “After the test plants have been left to stand in the greenhouse under optimal growth conditions for about 3 to 4 weeks, the action of the preparations is scored visually in comparison to untreated controls.” left out

Ipomoea ssp. = experiment: Post-emergence herbicidal action against Ipomoea ssp.; conditions: 45 DAT
Lysimachia nummularia = experiment: Post-emergence herbicidal action against Lysimachia nummularia; conditions: 45 DAT; 720 g a.i./ha
Malva pusilia = experiment: Post-emergence herbicidal action against Malva pusilia; conditions: 42 DAT; 720 g a.i./ha
Setaria viridis = experiment: Post-emergence herbicidal action against Setaria viridis; conditions: for Herbicidal action: 21 DAT
Protocol: as §2, §3, §4

Ipomoea hederacea = experiment: Post-emergence herbicidal action against Ipomoea hederacea
Protocol: as §2, §3, §4

Echinochloa crus-galli = experiment: Post-emergence herbicidal action against Echinochloa crus-galli
Protocol: as §2, §3, §4

Eleusine indica [1] = experiment: Post-emergence herbicidal action against Eleusine indica; conditions: (Z3) post-emergence, g of a.i./ha: 270, 90, 15, 5, 5 + 270, 15 + 90
Source text: (§5) The following abbreviations are used in the description and the tables that follow: • g of a.i./ha=grams of active substance (active ingredient) (=100% active compound) per hectare; • The sum total of the effects of the individual applications is reported under E^A; • expected values according to Colby are each reported under E^C.
(§6) The rating period is reported in days after application (DAT).

Eleusine indica [2] = experiment: as above; conditions: 21 DAT
Polygonum convolvulus [3] = experiment: Post-emergence herbicidal action against Polygonum convolvulus; conditions: g of a.i./ha: 90, 30, 45, 45 + 90, 45 + 30
Source text: as §5, §6

Kochia scoparia = experiment: Post-emergence herbicidal action against Kochia scoparia; conditions: 21 DAT
Polygonum convolvulus [4] = experiment: Post-emergence herbicidal action against Polygonum convolvulus; conditions: 21 DAT
Pharbitis purpurea = experiment: Post-emergence herbicidal action against Pharbitis purpurea; conditions: 21 DAT; 50 g a.i./ha
Protocol: as §2, §3, §4

Poa annua = experiment: Post-emergence herbicidal action against Poa annua; conditions: 28 DAT
Procedure, shortened: as §1

Centaurea cyano = experiment: Post-emergence herbicidal action against Centaurea cyano; conditions: 150 g a.i./ha
Procedure, shortened: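 Formulations (spray powders or emulsion concentrates) applied at various doses onto foliage using 300 to 800 l/ha water; plants treated at three-leaf stage, three weeks post-sowing in sandy loam under greenhouse conditions.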

Bromus sterilis = experiment: Post-emergence herbicidal action against Bromus sterilis; conditions: 28 DAT; 150 g a.i./ha
Lolium rigidum = experiment: Post-emergence herbicidal action against Lolium rigidum; conditions: 28 DAT; resistant biotype; 50 g a.i./ha
[5] = Amaranthus palmeri, post-emergence, 504 h, read-out: Herbicidal action 21 DAT [%] against Amaranthus palmeri
[6] = Amaranthus palmeri, post-emergence, 504 h, post-emergence, block with (B1.14) Tembotrione, read-out: Herbicidal action 21 DAT [%] against Amaranthus palmeri
[7] = 15 g of a.i./ha, post-emergence, block with (B1.14) Tembotrione
[8] = 45 g of a.i./ha, post-emergence, block with (B1.14) Tembotrione

## CS(=O)(=O)c1cc(C(F)(F)F)ccc1C(=O)c1cnoc1C1CC1 [(B4.18) Isoxaflutole]
Amaranthus palmeri; [5]
  pest or weed control at 5 g/ha: 10%
  pest or weed control at 15 g/ha: 10%
Amaranthus palmeri; Amaranthus palmeri, post-emergence, 504 h, 45 g of a.i./ha, read-out: Herbicidal action 21 DAT [%] against Amaranthus palmeri
  pest or weed control at 45 g/ha: 20%
Bidens pilosa; 5 g of a.i./ha
  Herbicidal action 21 DAT [%] against Bidens pilosa: 20%
Bidens pilosa; 45 g of a.i./ha
  Herbicidal action 21 DAT [%] against Bidens pilosa: 60%
Brachiaria platyphylla; 15 g of a.i./ha
  Herbicidal action 21 DAT [%] against Brachiaria platyphylla: 20%
Brachiaria platyphylla; 45 g of a.i./ha
  Herbicidal action 21 DAT [%] against Brachiaria platyphylla: 30%
Sorghum halepense; 45 g of a.i./ha
  Herbicidal action 21 DAT [%] against Sorghum halepense: 60%
Digitaria sanguinalis; 15 g of a.i./ha
  Herbicidal action 21 DAT [%] against Digitaria sanguinalis: 10%
Digitaria sanguinalis; 45 g of a.i./ha
  Herbicidal action 21 DAT [%] against Digitaria sanguinalis: 25%
Abutilon theophrasti
  Herbicidal action 37 DAT [%] against Abutilon theophrasti: 58%

## CS(=O)(=O)c1ccc(C(=O)C2C(=O)CCCC2=O)c([N+](=O)[O-])c1 [(B1.7) Mesotrione, mesotrione, reference compound]
Panicum maximum
  Herbicidal action 28 DAT [%] against Panicum maximum: 0%
Bellis perenne
  Herbicidal action 43 DAT [%] against Bellis perenne: 0%
Ephilobium hirsutum
  Herbicidal action 43 DAT [%] against Ephilobium hirsutum: 0%
Lamium purpureum
  Herbicidal action 32 DAT [%] against Lamium purpureum: 0%
Ranunculus repens
  Herbicidal action 43 DAT [%] against Ranunculus repens: 0%
Viola arvensis
  Herbicidal action 43 DAT [%] against Viola arvensis: 0%
Amaranthus palmeri; Amaranthus palmeri, post-emergence, 504 h, post-emergence, block with (B1.7) Mesotrione, read-out: Herbicidal action 21 DAT [%] against Amaranthus palmeri
  pest or weed control at 5 g/ha: 0%
Bidens pilosa; 5 g of a.i./ha, post-emergence, block with (B1.7) Mesotrione
  Herbicidal action 21 DAT [%] against Bidens pilosa: 0%
Bidens pilosa; 45 g of a.i./ha, post-emergence, block with (B1.7) Mesotrione
  Herbicidal action 21 DAT [%] against Bidens pilosa: 25%

## O=C(O)CNCP(=O)(O)O [(B7.5) Glyphosate (CAS 39600-42-5)]
Amaranthus palmeri; 16 DAT, 1440 g a.i./ha
  Herbicidal action: 2%
Ipomoea ssp.; 720 g a.i./ha
  Herbicidal action: 0%
Ipomoea ssp.; 1440 g a.i./ha
  Herbicidal action: 0%
Lysimachia nummularia
  Herbicidal action: 7%
Malva pusilia
  Herbicidal action: 0%

## CS(=O)(=O)c1ccc(C(=O)C2C(=O)CCCC2=O)c(Cl)c1COCC(F)(F)F [(B1.14) Tembotrione, tembotrione, reference compound]
Amaranthus palmeri; [6]
  pest or weed control at 5 g/ha: 10%
  pest or weed control at 15 g/ha: 20%
Bidens pilosa; 5 g of a.i./ha, post-emergence, block with (B1.14) Tembotrione
  Herbicidal action 21 DAT [%] against Bidens pilosa: 10%
Bidens pilosa; [7]
  Herbicidal action 21 DAT [%] against Bidens pilosa: 25%
Bidens pilosa; [8]
  Herbicidal action 21 DAT [%] against Bidens pilosa: 25%
Brachiaria platyphylla; [7]
  Herbicidal action 21 DAT [%] against Brachiaria platyphylla: 50%
Brachiaria platyphylla; [8]
  Herbicidal action 21 DAT [%] against Brachiaria platyphylla: 50%
Setaria viridis; 5 g of a.i./ha, post-emergence
  Herbicidal action 21 DAT [%] against Setaria viridis: 10%
Sorghum halepense; 5 g of a.i./ha, post-emergence
  Herbicidal action 21 DAT [%] against Sorghum halepense: 30%
Sorghum halepense; 15 g of a.i./ha, post-emergence
  Herbicidal action 21 DAT [%] against Sorghum halepense: 50%
Ipomoea hederacea; 37.5 g of a.i./ha, post-emergence
  Herbicidal action 37 DAT [%] against Ipomoea hederacea: 0%

## COC(=O)[C@H]1C[C@@H](NC(=O)C2(OC)CC(c3cc(Cl)cc(Cl)c3)=NO2)CO1 (relative stereo) [Compound A1, methyl rel-(2R,4R)-4-[[3-(3,5-dichlorophenyl)-5-methoxy-4H-isoxazole-5-carbonyl]amino]tetrahydrofuran-2-carboxylate]
Amaranthus palmeri; 21 DAT, (res.), 5 g a.i./ha
  Herbicidal action: 10%
Amaranthus palmeri; 21 DAT, (res.), 15 g a.i./ha
  Herbicidal action: 10%
Amaranthus palmeri; 21 DAT, (res.), 45 g a.i./ha
  Herbicidal action: 40%
Bidens pilosa; 15 g a.i./ha
  Herbicidal action: 35%
Bidens pilosa; post-emergence, g of a.i./ha: 90, 30, 15, 15 + 90, 15 + 30
  Herbicidal action 21 DAT against Bidens pilosa: 35%
Brachiaria platyphylla; 1.7 g a.i./ha
  Herbicidal action: 50%
Setaria viridis; 1.7 g a.i./ha
  Herbicidal action: 15%
Sorghum halepense; 1.7 g a.i./ha
  Herbicidal action: 10%
Sorghum halepense; 15 g a.i./ha
  Herbicidal action: 35%
Digitaria sanguinalis; 1.7 g a.i./ha
  Herbicidal action: 20%
Echinochloa crus-galli; (Z3) post-emergence, g of a.i./ha: 270, 30, 5, 5 + 270, 5 + 30
  Herbicidal action 21 DAT against Echinochloa crus-galli: 10%
Eleusine indica [1]; 5 g of a.i./ha
  Herbicidal action 21 DAT against Eleusine indica: 45%
Eleusine indica [1]; 15 g of a.i./ha
  Herbicidal action 21 DAT against Eleusine indica: 70%
Eleusine indica [2]; 1.7 g a.i./ha
  Herbicidal action: 20%
Polygonum convolvulus [3]
  Herbicidal action 21 DAT against Polygonum convolvulus: 85%
Kochia scoparia; 5 g a.i./ha
  Herbicidal action: 20%
Kochia scoparia; 15 g a.i./ha
  Herbicidal action: 45%
Polygonum convolvulus [4]; 5 g a.i./ha
  Herbicidal action: 85%
Polygonum convolvulus [4]; 45 g a.i./ha
  Herbicidal action: 85%

## CCS(=O)(=O)c1cccnc1S(=O)(=O)NC(=O)Nc1nc(OC)cc(OC)n1 [(B2.63) Rimsulfuron]
Ipomoea hederacea; 35 g of a.i./ha
  Herbicidal action 37 DAT against Ipomoea hederacea: 0%

## CP(=O)(O)CCC(N)C(=O)O (stereo not shown) [(B7.4) Glufosinate]
Amaranthus palmeri; 21 DAT, 50 g a.i./ha
  Herbicidal action: 50%
Amaranthus palmeri; 21 DAT, (res.), 50 g a.i./ha
  Herbicidal action: 35%
Amaranthus palmeri; 21 DAT, (res.), 150 g a.i./ha
  Herbicidal action: 70%
Bidens pilosa; 50 g a.i./ha
  Herbicidal action: 30%
Bidens pilosa; 150 g a.i./ha
  Herbicidal action: 75%
Bidens pilosa; 450 g a.i./ha
  Herbicidal action: 75% and 90%
Brachiaria platyphylla; 150 g a.i./ha
  Herbicidal action: 70%
Setaria viridis; 50 g a.i./ha
  Herbicidal action: 40% and 20%
Sorghum halepense; 50 g a.i./ha
  Herbicidal action: 20%
Sorghum halepense; 450 g a.i./ha
  Herbicidal action: 5%
Digitaria sanguinalis; 450 g a.i./ha
  Herbicidal action: 85%
Pharbitis purpurea
  Herbicidal action: 20%
Poa annua; 50 g a.i./ha
  Herbicidal action: 20%
Poa annua; 150 g a.i./ha
  Herbicidal action: 30%
Centaurea cyano; 14 DAT
  Herbicidal action: 60%
Centaurea cyano; 28 DAT
  Herbicidal action: 30%
Echinochloa crus-galli; 21 DAT, 150 g a.i./ha
  Herbicidal action: 65%
Eleusine indica [2]; 50 g a.i./ha
  Herbicidal action: 15%
Eleusine indica [2]; 150 g a.i./ha
  Herbicidal action: 35% and 40%
Eleusine indica [2]; 450 g a.i./ha
  Herbicidal action: 60%
Kochia scoparia; 50 g a.i./ha
  Herbicidal action: 20%
Kochia scoparia; 450 g a.i./ha
  Herbicidal action: 80%
Polygonum convolvulus [4]; 50 g a.i./ha
  Herbicidal action: 10%
Polygonum convolvulus [4]; 150 g a.i./ha
  Herbicidal action: 20%
Bromus sterilis
  Herbicidal action: 10%
Lolium rigidum
  Herbicidal action: 10%
